# In patent US20220152174A1, “Cancer Antigen Peptide” (National University Corporation Asahikawa Medical University, priority 2018, published 2022):
# Assays:
# [1] = tested on: DAZL1 protein in E0771 and C1498; test: DAZL1 protein by Western blotting in mouse cancer cell lines; type: cell-based; conditions: 5-AZA 10 μM
# Experimental: Cells of mouse cancer cell lines (E0771:C57BL/6 mouse breast cancer cell line and C1498:C57BL/6 mouse acute myeloid leukemia cell line) were treated with 5-AZA (10 μM), and the amount of DAZL1 protein was analyzed by Western blotting.
# [2] = tested on: lung cancer cell line Lu65; test: Tumor growth in nude mice bearing Lu65; type: in vivo, mouse; conditions: BALB/c nude mice, 5-AZA 150 nmol/g i.p. Days 7, 12, 17, 22, Th cells i.v. Days 13, 20, 27
# Experimental: BALB/c nude mice (10 to 14 weeks old, CHARLES RIVER LABORATORIES JAPAN) were intradermally injected with 3×10^6 cells of lung cancer cell line Lu65 using Myjector, and on Days 7, 12, 17, and 22, 200 μL of PBS containing 5-AZA (150 nmol/g of mouse body weight) was intraperitoneally administered using Myjector. To the control mice, 200 μL of PBS was intraperitoneally administered. On Days 13, 20, and 27, 200 μL of SYCP3-specific human Th cells (3 to 5×10^6 cells) were administered by tail vein administration. To the control mice, 200 μL of PBS was administered by tail vein administration. The tumor surface areas were measured over time.
# [3] = tested on: mouse DAZL1 gene expression in WEHI-3; test: DAZL1 gene expression by real-time PCR in 5-AZA-treated WEHI-3; type: cell-based
# Experimental: Cells of cancer cell lines (lung cancer cell line EBC1, lung cancer cell line Lu65, colon cancer cell line HT-29, and oral squamous cell carcinoma cell line SAS) were cultured in the complete medium (RPMI 1640 medium (nacalai tesque 30264-56) with 100 U/mL penicillin (Meiji Seika) and […] streptomycin (Meiji Seika), added with 10% fetal bovine serum (biosera FB-1365/500) which had been […] at 56° C. for 30 minutes) containing 5-AZA (10 μM) at the density of 2×10^5 cells/well in 6-well plates (Falcon 353046) in an incubator (SANYO) set at 37° C., 5% CO2, and 95% humidity for 3 days. The same incubator was used for all cell cultures in the following tests. The cells were washed with 2 mL of a phosphate-buffered saline (PBS, KANTO CHEMICAL CO., INC. 73111). The RNAs were extracted with RNeasy Mini Kit (Qiagen 74106), and the cDNAs were synthesized by using PrimeScript 1st strand cDNA Synthesis Kit (Takara Bio 6110A), and the gene expression levels of GAPDH (Applied Biosystems Hs02786624_g1) and SYCP3 (Applied Biosystems Hs00538146_m1) were analyzed by real-time PCR using LightCycler480 (Roche). […]
# Similarly, cells of mouse leukemia cell line WEHI-3 (Balb/c) was cultured in the presence of 5-AZA, and the gene expression levels of mouse GAPDH (Applied Biosystems Mm99999915_g1) and mouse DAZL1 (Applied Biosystems Mm01273546_m1) were analyzed.
# [4] = tested on: SPESP1 gene expression in SW839, 5637, LC2/Ad, EBC1, HT-29, Lu65, SAS; test: SPESP1 gene expression by real-time PCR in 5-AZA-treated cancer cell lines; type: cell-based, human; conditions: all tested cell lines
# Experimental: Cells of cancer cell lines (lung cancer cell line EBC1, lung cancer cell line Lu65, colon cancer cell line HT-29, and oral squamous cell carcinoma cell line SAS) were cultured in the complete medium (RPMI 1640 medium (nacalai tesque 30264-56) with 100 U/mL penicillin (Meiji Seika) and 100 μg/L streptomycin (Meiji Seika), added with 10% fetal bovine serum (biosera FB-1365/500) which had been immobilized at 56° C. for 30 minutes) containing 5-AZA (10 μM) at the density of 2×10^5 cells/well in 6-well plates (Falcon 353046) in an incubator (SANYO) set at 37° C., 5% CO2, and 95% humidity for 3 days. […] The RNAs were extracted with RNeasy Mini Kit (Qiagen 74106), and the cDNAs were synthesized by using PrimeScript 1st strand cDNA Synthesis Kit (Takara Bio 6110A), and the gene expression levels of GAPDH (Applied Biosystems Hs02786624_g1) and SYCP3 (Applied Biosystems Hs00538146_m1) were analyzed by real-time PCR using LightCycler480 (Roche). […]
# Similarly, cells of renal cancer cell line SW839, bladder cancer cell line 5637, lung adenocarcinoma cell line LC2/Ad, lung cancer cell line EBC1, colon cancer cell line HT-29, lung cancer cell line Lu65, and oral squamous cell carcinoma cell line SAS were cultured in the presence of 5-AZA, and the gene expression levels of GAPDH and SPESP1 (Applied Biosystems Hs00377364_m1) were analyzed.
# [5] = tested on: SYCP3 gene expression in HT-29 or WiDr tumor tissues; test: SYCP3 gene expression in tumor tissues of nude mice given 5-AZA; type: in vivo, mouse; conditions: 5-AZA 1.6 μg/g i.p. Days 5, 10, 15, 20; tumors Day 25; vs PBS alone
# Experimental: To the control mice, 200 μL of PBS was intraperitoneally administered.
# [6] = tested on: DR53-positive cancer cell lines (WiDr, Lu65, and Calu1); conditions: cancer cells pretreated with 10 μM 5-AZA and 500 U/mL IFN-γ for 3 days; co-culture 24 hours
# Experimental: In order to study the reactivity of SYCP3-A peptide-specific CD4-positive T-cells toward cells of cancer cell lines, DR53-positive cancer cell lines (WiDr, Lu65, and Calu1) were used. The cancer cells were cultured in 6-well culture plates for 3 days using 2 mL of the complete medium containing 10 μM 5-AZA and 500 U/mL IFN-γ (Immunomax-γ for injection 50, Shionogi), which can induce expression of HLA class II molecules on the surfaces of cancer cells. The culture plates were thoroughly washed with PBS, 1 mL of 5 mM EDTA (ethylenediaminetetraacetic acid, nacalai tesque 14347-21) was added to suspend the cells, and the cells were recovered. In the same manner as in Test 8, 1×10^4 cells of each cell line and 5×10^4 CD4-positive T-cells were co-cultured in 96-well flat bottom culture plates using 200 μL of the culture medium for human cells. […] After 24 hours 100 μL of the culture supernatants were collected from each well, and the IFN-γ concentrations were determined using the ELISA kit.
# [7] = tested on: lung cancer cell line A549; test: DNA microarray gene expression after 5-AZA treatment; type: cell-based, human
# Experimental: Cells of lung cancer cell line A549 were treated with 5-AZA (10 μM) for 3 days and the RNAs were extracted. Gene expression levels were measured using DNA microarrays. The criteria for identifying the candidate genes were that the expression level was close to 0 in the non-treated cells and increased by 30 times or more in the 5-AZA-treated cells. Some candidate genes were found, including SYCP3 (untreated: 3.0, 5-AZA treated: 340.9, fold-change: […]), SPESP1 (untreated: 1.7, 5-AZA treated: 65.3, fold-change: […]), and DAZL1 (untreated: 2.8, 5-AZA treated: 341.3, fold-change: 123.6).
# [8] = tested on: SPESP1 gene expression in EBC1 or Lu65 tumor tissues; test: SPESP1 gene expression in tumor tissues of nude mice given 5-AZA; type: in vivo, mouse; conditions: 5-AZA i.p.; tumors Day 25; vs PBS alone
# Experimental: Similarly, nude mice were intradermally injected with cells of lung cancer cell line EBC1 (5×10^5 cells) or Lu65 (5×10^5 cells), and 5-AZA or PBS (control) was intraperitoneally administered. The RNAs were extracted from the tumor tissues collected on Day 25, and the gene expression levels of SPESP1 and GAPDH were analyzed by real-time PCR.
# [9] = tested on: SYCP3 gene expression in EBC1, Lu65, HT-29, SAS; test: SYCP3 gene expression by real-time PCR in 5-AZA-treated cancer cell lines; type: cell-based, human; conditions: 5-AZA 10 μM, 3 days; all tested cell lines (EBC1, Lu65, HT-29, SAS)
# Experimental: Cells of cancer cell lines (lung cancer cell line EBC1, lung cancer cell line Lu65, colon cancer cell line HT-29, and oral squamous cell carcinoma cell line SAS) were cultured in the complete medium (RPMI 1640 medium (nacalai tesque 30264-56) with 100 U/mL penicillin (Meiji Seika) and […] streptomycin (Meiji Seika), added with 10% fetal bovine serum (biosera FB-1365/500) which had been […] at 56° C. for 30 minutes) containing 5-AZA (10 μM) at the density of 2×10^5 cells/well in 6-well plates (Falcon 353046) in an incubator (SANYO) set at 37° C., 5% CO2, and 95% humidity for 3 days. The same incubator was used for all cell cultures in the following tests. The cells were washed with 2 mL of a phosphate-buffered saline (PBS, KANTO CHEMICAL CO., INC. 73111). The RNAs were extracted with RNeasy Mini Kit (Qiagen 74106), and the cDNAs were synthesized by using PrimeScript 1st strand cDNA Synthesis Kit (Takara Bio 6110A), and the gene expression levels of GAPDH (Applied Biosystems Hs02786624_g1) and SYCP3 (Applied Biosystems Hs00538146_m1) were analyzed by real-time PCR using LightCycler480 (Roche). Each step was carried out in accordance with the description of the package inserts attached to each reagent.
# [10] = tested on: SYCP3 protein in EBC1 and Lu65; test: SYCP3 protein by Western blotting; type: cell-based, human; conditions: EBC1 and Lu65 treated with 5-AZA
# Experimental: The amount of SYCP3 protein in EBC1 and Lu65 treated with 5-AZA was analyzed by Western blotting. An anti-SYCP3 antibody (Mouse anti-SCP3, BD Bioscience 611230) diluted at 1:200 was used as the primary antibody. Upregulation of SYCP3 by the 5-AZA treatment was also observed at the protein level.
# [11] = A549, 5-AZA 10 μM, 3 days, DNA microarray
# [12] = A549, 5-AZA treated vs untreated
smiles,measurement,setting,value
"Nc1ncn([C@H]2C[C@H](O)[C@@H](CO)O2)c(=O)n1 [5-AZA, 5-aza-2′-deoxycytidine]",amount of DAZL1 protein,[1],upregulated
same,tumor growth (tumor surface area),[2],No effect
same,DAZL1 gene expression level,[3],upregulated
same,SPESP1 gene expression level,[4],upregulated
same,SYCP3 gene expression in tumor tissues,[5],upregulated
same,IFN-γ production of SYCP3-A-specific CD4-positive T-cells toward cancer cells,[6],increased the IFN-γ production
same,"DAZL1 gene expression level, 5-AZA treated",[7]; [11],341.3
same,"SPESP1 gene expression level, 5-AZA treated",[7]; [11],65.3
same,"SYCP3 gene expression level, 5-AZA treated",[7]; [11],340.9
same,DAZL1 fold-change,[7]; [12],123.6
same,SPESP1 fold-change,[7]; [12],38.8
same,SYCP3 fold-change,[7]; [12],112.3
same,SPESP1 gene expression in tumor tissues,[8],upregulated
same,SYCP3 gene expression level,[9],upregulated
same,amount of SYCP3 protein,[10],Upregulation
